The text below walks through data of patent US20220387365A1, “TUCARESOL DERIVATIVES AND USES THEREOF” (BeyondSpring Pharmaceuticals, Inc., priority 2019, published 2022).

For data set [1], the system named is MC-38 tumor cells. Description: In vivo efficacy in subcutaneous MC-38 murine colorectal cancer model (Example 9). Further details: species or system C57BL/6 mice. As to the method:
This study evaluated preclinically the in vivo therapeutic efficacy of Compound C02 as a single agent and in combination with anti-PD-1 antibody in the treatment of subcutaneous MC-38 colorectal cancer models in C57BL/6 mice.
Treatment regimen may be changed per BW loss or other adverse effect according to rules set forth and/or client requests. When dosed on the same day, vehicle for CO2 was administered about 1-2 hours after the dosing of anti-PD1 or control IgG.
The […] tumor cells were maintained in vitro as a monolayer culture in RPMI-1640 supplemented with 10% fetal bovine serum at 37° C. in an atmosphere of 5% CO2 in air. The cells in an exponential growth phase were harvested and counted for tumor inoculation. […]
After tumor cells inoculation, the animals were checked daily for morbidity and mortality. During routine monitoring, the animals were checked for any effects of tumor growth and treatments on behavior such as mobility, food and water consumption, body weight gain/loss (body weights will be measured twice per week after randomization), eye/hair matting and any other abnormalities. Mortality and observed clinical signs were recorded for individual animals in detail. […]
Rectal temperature was recorded without anaesthesia on the day prior to the first dosing and on the day after the last oral dose.

The nature of data set [2]: Body weight in MC38 model (Example 10). The format is in vivo. Conditions: for Mean Body Weight: in g (unit assumed). As to the method:
After tumor cell inoculation, the animals were checked daily for morbidity and mortality. During routine monitoring, the animals were checked for any effects of tumor growth and treatments on behavior such as mobility, food and water consumption, body weight gain/loss (Body weights were measured three times a week after randomization), eye/hair matting and any other abnormalities. Mortality and observed clinical signs were recorded for individual animals in detail.
Tumor volumes were measured three times a week after randomization in two dimensions using a caliper, and the volume was expressed in mm^3 using the formula: V=(L×W×W)/2, where V is tumor volume, L is tumor length (the longest tumor dimension) and W is tumor width (the longest tumor dimension perpendicular to L). Dosing as well as tumor and body weight measurements were conducted in a Laminar Flow Cabinet. The body weights and tumor volumes were measured by using StudyDirector™ software (version 3.1.399.19).
After one measurement of body weight loss (BWL)>20% or BWL>15% for consecutive 72 hours, the individual mouse was sacrificed. BWL was calculated based on the BW of mouse on the first day of treatment. After one measurement of BWL>15%, dosing holidays were given to the individual mouse with BWL>15% which was housed in a separate cage alone with daily monitoring for 72 hours, while other mice in the same group would receive dosing as scheduled., treatment was resumed when the BWL has recovered to BWL<10%. Supplemental gel was supplied to all the animals in the study on day 5 to day 15 upon sponsor's request.
The body weight of all animals was monitored throughout the study and animals were euthanized if they lost over 15% of their body weight relative to the weight at the first day of treatment for 3 consecutive days, or lose over 20% of their body weight relative to the weight at the first day of treatment.

Molecules are shown by their SMILES.

Turning to `O=Cc1c(OCc2ccc(C(=O)O)cc2)cccc1OC1O[C@H](CO)[C@@H](O)[C@H](O)[C@H]1O` (stereo partly drawn) [Compound C02], in data set [1] (QDx5, as a monotherapy or in combination with anti-PD1), the “time of treatment after which the benefits were especially apparent” value is 15 to 20 days. Further, in data set [1] (QDx5 dosing, down to 10 mg/kg QDx5), the “dose response of efficacy (in words)” value is given as “inverse dose response relationship”. Besides, the “weight loss (in words)” value in data set [2] (20 mg/kg, PO, QDx5 (day 1-5), as a monotherapy or in combination with anti-PD1) is on record as “not associated with weight loss”. Also, the “Mean Body Weight” value in data set [2] (Day 1, Group 02: C02 20 mg/kg p.o. QD × 5 (day 1~5) + Rat IgG2a 10 mg/kg i.p. BIW) worked out at 18.9 ± 0.2; in data set [2] (Day 1, Group 04: C02 20 mg/kg p.o. QD × 5 (day 1~5) in combination with PD-1 (RMP 1-14) 10 mg/kg i.p. BIW × 6 doses), 19.2 ± 0.2; in data set [2] (Day 4, Group 02: C02 20 mg/kg p.o. QD × 5 (day 1~5) + Rat IgG2a 10 mg/kg i.p. BIW), 19.2 ± 0.2; in data set [2] (Day 4, Group 04: C02 20 mg/kg p.o. QD × 5 (day 1~5) in combination with PD-1 (RMP 1-14) 10 mg/kg i.p. BIW × 6 doses) it was 19.3 ± 0.2; in data set [2] (Day 8, Group 02: C02 20 mg/kg p.o. QD × 5 (day 1~5) + Rat IgG2a 10 mg/kg i.p. BIW), 19.6 ± 0.2; in data set [2] (Day 8, Group 04: C02 20 mg/kg p.o. QD × 5 (day 1~5) in combination with PD-1 (RMP 1-14) 10 mg/kg i.p. BIW × 6 doses), 19.9 ± 0.1. Besides, the “Mean Body Weight” value in data set [2] (Day 10, Group 02: C02 20 mg/kg p.o. QD × 5 (day 1~5) + Rat IgG2a 10 mg/kg i.p. BIW) stood at 20 ± 0.3; in data set [2] (Day 10, Group 04: C02 20 mg/kg p.o. QD × 5 (day 1~5) in combination with PD-1 (RMP 1-14) 10 mg/kg i.p. BIW × 6 doses) it was 20.3 ± 0.2; in data set [2] (Day 12, Group 02: C02 20 mg/kg p.o. QD × 5 (day 1~5) + Rat IgG2a 10 mg/kg i.p. BIW) it was 20.6 ± 0.4; in data set [2] (Day 12, Group 04: C02 20 mg/kg p.o. QD × 5 (day 1~5) in combination with PD-1 (RMP 1-14) 10 mg/kg i.p. BIW × 6 doses), 21 ± 0.2; in data set [2] (Day 15, Group 02: C02 20 mg/kg p.o. QD × 5 (day 1~5) + Rat IgG2a 10 mg/kg i.p. BIW), 22.3 ± 0.5; in data set [2] (Day 15, Group 04: C02 20 mg/kg p.o. QD × 5 (day 1~5) in combination with PD-1 (RMP 1-14) 10 mg/kg i.p. BIW × 6 doses), 21.9 ± 0.4.
